Data as given in US9040523B2, “Antifungal 5,6-dihydro-4H-pyrrolo[1,2-α][1,4]-benzodiazepines and 6H-pyrrolo[1,2-α][1,4]benzodiazepines substituted with benzene derivatives” (JANSSEN PHARMACEUTICA NV, priority 2010, dated 2015).

Key:
Test in all cases: Human liver microsomal cytochrome P450 cocktail inhibition assay, Protocol C
[1] = molecular target: T1, Cytochrome P450 1A2 (Homo sapiens, UniProt P05177)
T1 sequence (P05177 1-516): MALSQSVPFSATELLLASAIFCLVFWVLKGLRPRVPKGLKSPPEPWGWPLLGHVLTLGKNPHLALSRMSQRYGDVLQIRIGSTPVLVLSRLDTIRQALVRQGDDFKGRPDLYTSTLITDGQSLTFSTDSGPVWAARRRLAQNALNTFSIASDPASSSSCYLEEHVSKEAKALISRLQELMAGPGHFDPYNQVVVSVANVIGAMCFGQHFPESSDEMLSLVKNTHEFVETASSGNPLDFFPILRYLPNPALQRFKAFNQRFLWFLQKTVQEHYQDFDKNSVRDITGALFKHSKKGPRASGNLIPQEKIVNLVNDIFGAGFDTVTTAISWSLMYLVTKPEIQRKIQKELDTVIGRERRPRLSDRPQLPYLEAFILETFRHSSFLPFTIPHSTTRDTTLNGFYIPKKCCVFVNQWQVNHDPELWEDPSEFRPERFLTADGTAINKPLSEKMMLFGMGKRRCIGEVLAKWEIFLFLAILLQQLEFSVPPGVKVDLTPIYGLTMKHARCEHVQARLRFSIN
Protocol: (§1) Probe substrates and final assay concentrations with the appropriate internal standard are outlined in Table 6a.
(§2) Assays were performed in 0.1 M phosphate buffer (pH 7.4), containing 0.2 mg/ml human liver microsomes (BD Gentest) and a probe substrate mix consisting of: phenacetin, tolbutamide, S-mephenyloin, dextromethorphan, amodiaquine and midazolam (Table 6a) and a range of test compound concentrations (0 to 30 micromolar) in a total volume of 100 microliters. After a 10 min pre-incubation at 37° C., the reaction was started with addition of NADPH at a final concentration of 1.0 mM. […] The samples are centrifuged for 10 min at 4° C. at 4000 rpm and 60 microliters supernatant is diluted with 180 microliters water. Each sample is injected onto a UPLC/MS system for the simultaneous measurement of the probe substrate metabolites and their associated deuterated internal standards. Percentage inhibition is calculated according to: %-inhibition=(1−Ri/R)*100, whereby Ri and R are the metabolite to internal standard peak area ratios in the presence and absence of inhibitor respectively.
(§3) Percentage inhibition data are plotted against the Log transformed test compound concentration and after curve fitting the IC50-value is determined.

[2] = molecular target: Cytochrome P450 2C9 (Homo sapiens, UniProt P11712); details: 2C9 Tolbut pIC50, human liver microsomes 0.2 mg/ml; probe tolbutamide 100 microM
Sequence of Cytochrome P450 2C9 (P11712 whole entry): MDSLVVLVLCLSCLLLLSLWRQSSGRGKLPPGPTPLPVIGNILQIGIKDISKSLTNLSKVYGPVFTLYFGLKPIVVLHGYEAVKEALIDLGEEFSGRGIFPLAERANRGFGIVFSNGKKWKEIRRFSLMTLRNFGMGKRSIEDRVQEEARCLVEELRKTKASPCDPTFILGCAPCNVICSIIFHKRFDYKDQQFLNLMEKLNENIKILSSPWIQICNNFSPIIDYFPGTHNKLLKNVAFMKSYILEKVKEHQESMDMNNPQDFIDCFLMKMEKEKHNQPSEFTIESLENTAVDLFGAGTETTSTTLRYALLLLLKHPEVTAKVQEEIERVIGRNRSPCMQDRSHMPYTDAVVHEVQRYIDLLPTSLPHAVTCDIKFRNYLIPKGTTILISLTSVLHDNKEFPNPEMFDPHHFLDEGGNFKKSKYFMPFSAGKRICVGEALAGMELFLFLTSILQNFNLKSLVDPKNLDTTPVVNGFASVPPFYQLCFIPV
Protocol: as §1, §2, §3

[3] = molecular target: Cytochrome P450 2D6 (Homo sapiens, UniProt P10635); details: 2D6_Dextro pIC50, human liver microsomes 0.2 mg/ml; probe dextromethorphan 3 microM
Sequence of Cytochrome P450 2D6 (P10635 whole entry): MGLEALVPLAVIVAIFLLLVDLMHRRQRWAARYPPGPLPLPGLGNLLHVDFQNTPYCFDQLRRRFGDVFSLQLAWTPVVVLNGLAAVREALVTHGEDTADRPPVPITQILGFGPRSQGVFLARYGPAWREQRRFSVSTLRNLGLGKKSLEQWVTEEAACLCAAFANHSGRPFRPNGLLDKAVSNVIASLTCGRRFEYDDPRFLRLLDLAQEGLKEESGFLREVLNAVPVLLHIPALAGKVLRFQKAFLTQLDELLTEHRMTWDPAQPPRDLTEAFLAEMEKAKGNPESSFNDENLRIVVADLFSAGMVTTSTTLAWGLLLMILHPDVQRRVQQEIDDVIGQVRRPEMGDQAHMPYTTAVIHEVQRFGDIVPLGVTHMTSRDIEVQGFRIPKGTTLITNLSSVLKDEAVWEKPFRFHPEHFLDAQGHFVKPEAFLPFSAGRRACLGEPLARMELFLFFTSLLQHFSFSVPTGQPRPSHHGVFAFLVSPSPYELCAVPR
Protocol: as §1, §2, §3

[4] = molecular target: Cytochrome P450 2C19 (Homo sapiens, UniProt P33261); details: 2C19_S-Meph pIC50, human liver microsomes 0.2 mg/ml; probe S-mephenytoin 30 microM
Sequence of Cytochrome P450 2C19 (P33261 whole entry): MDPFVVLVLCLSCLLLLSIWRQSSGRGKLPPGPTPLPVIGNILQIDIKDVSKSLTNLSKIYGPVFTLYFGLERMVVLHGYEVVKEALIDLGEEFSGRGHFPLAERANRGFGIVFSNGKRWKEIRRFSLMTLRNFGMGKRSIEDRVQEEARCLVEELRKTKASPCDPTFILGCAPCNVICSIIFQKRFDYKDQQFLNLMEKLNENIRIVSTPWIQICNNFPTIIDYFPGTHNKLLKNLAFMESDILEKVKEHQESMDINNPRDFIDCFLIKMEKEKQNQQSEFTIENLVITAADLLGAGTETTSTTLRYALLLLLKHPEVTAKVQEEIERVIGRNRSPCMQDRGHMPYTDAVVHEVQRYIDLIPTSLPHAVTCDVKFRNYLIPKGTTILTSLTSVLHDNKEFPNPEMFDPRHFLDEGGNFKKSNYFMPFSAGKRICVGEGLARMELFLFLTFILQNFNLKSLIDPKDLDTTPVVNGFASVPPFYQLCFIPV
Protocol: as §1, §2, §3

[5] = molecular target: T2, Cytochrome P450 2C8 (Homo sapiens, UniProt P10632); format: in vitro ADME; details: human liver microsomes 0.2 mg/ml; probe amodiaquine 2 microM; read-out: 2C8_Amod pIC50 (converted)
T2 construct: tissue BD Gentest; host or cells: human liver microsomes
T2 sequence (P10632 1-490): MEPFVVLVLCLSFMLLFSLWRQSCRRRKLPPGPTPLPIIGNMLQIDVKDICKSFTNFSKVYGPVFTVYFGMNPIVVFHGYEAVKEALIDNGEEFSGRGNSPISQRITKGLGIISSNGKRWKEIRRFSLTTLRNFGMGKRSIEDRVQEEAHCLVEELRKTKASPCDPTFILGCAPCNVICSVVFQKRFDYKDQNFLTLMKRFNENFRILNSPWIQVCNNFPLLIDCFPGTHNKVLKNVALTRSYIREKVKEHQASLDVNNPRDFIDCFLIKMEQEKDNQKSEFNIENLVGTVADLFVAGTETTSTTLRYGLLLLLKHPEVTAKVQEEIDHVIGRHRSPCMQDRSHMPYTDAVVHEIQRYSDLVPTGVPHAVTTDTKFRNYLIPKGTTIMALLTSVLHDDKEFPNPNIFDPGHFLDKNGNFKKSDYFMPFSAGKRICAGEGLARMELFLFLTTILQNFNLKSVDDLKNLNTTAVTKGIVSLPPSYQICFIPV
Protocol: as §1, §2, §3

Row | Compound | IC50 [1] | IC50 [2] | IC50 [3] | IC50 [4] | IC50 [5]
1 | CCc1ccc(C2=NCc3c(Cl)cccc3-n3cccc32)cc1 [drawing 92] | > 10 µM | > 10 µM | > 10 µM | 1.58 µM | > 10 µM
2 | CS(=O)(=O)c1ccc(C2=NCc3c(Cl)cccc3-n3cccc32)cc1 [drawing 93] | > 10 µM | > 10 µM | 7.59 µM | > 10 µM | > 10 µM
3 | CC(=O)c1ccc(C2NCc3c(Cl)cccc3-n3cccc32)cc1 (stereo not drawn) [drawing 94] | > 10 µM | 3.16 µM | 3.16 µM | 3.16 µM | 
4 | CC(O)c1ccc(C2NCc3c(Cl)cccc3-n3cccc32)cc1 (stereo not drawn) [drawing 97] | > 10 µM | > 10 µM | > 10 µM | 5.13 µM | > 10 µM
5 | CC(=O)c1cccc(C2NCc3c(Cl)cccc3-n3cccc32)c1 (stereo not drawn) [drawing 99] | > 10 µM | 1.58 µM | 3.16 µM | 0.158 µM | 7.94 µM
